Measured values published in paper PMC7450057, “Enhancing intracellular accumulation and target engagement of PROTACs with reversible covalent chemistry” (Nature Communications, 2020).
Several values for one entry are separate records, joined by “and”; a condition that tells them apart may be missing. Equal entries are not always repeated.

Tests used:
NanoLuc-CRBN fusion = target: T1, NanoLuc-CRBN fusion (Homo sapiens, UniProt Q96SW2); test: NanoBRET CRBN in-cell target engagement assay; type: cell-based; conditions: for NanoBRET(%): Figure 3b; for NanoBRET(%) / IC50: triplicates; for IC50: HEK-293 cells, CRBN tracer 0.5 µM, read-out: CRBN target engagement IC50,TE; for K′P,D (relative intracellular accumulation coefficient): Kd (CRBN)/IC50,TE (CRBN); for intracellular accumulation of RC-1 relative to the compound: from K′P,D values, CRBN (Table 2); for CRBN target engagement IC50 relative to that of RC-1: ratio compound/RC-1
T1 construct: host or cells: HEK 293T/17
Description: The target engagement assay for BTK or CRBN was from Promega (BTK kit, Cat. No. N2500; CRBN kit, Cat. No. CS1810C136) and was performed according to the manufacture’s instruction with some modifications. […] After 2 h incubation, the 3X Nano-Glo® Substrate with NanoLuc® extracellular inhibitor were added to cells and developed for 3 min at room temperature. BRET signals were collected using a BioTek SYNERGY H1 microplate reader equipped with a 450/80-nm BP filter for donor emission and a 610-nm LP filter for acceptor emission. BRET Ratio was calculated with the equation: [(Acceptor sample/Donor sample)–(Acceptor no tracer control/Donor no tracer control)] × 1000. The IC50 of the compound against its BTK or CRBN tracer was calculated using GraphPad Prism software.

[1] = target: truncated Cereblon protein (Homo sapiens, UniProt Q96SW2); test: CRBN binding assay (fluorescence quenching); conditions: for Fluorescence Intensity: Supplementary Figure 11, replicates; for Kd: truncated Cereblon protein, fluorescence quenching, triplicates, read-out: Kd
Description: The Kd values of compounds to CRBN were measured based on fluorescence quenching after compounds binding to CRBN. […] All the compounds were dissolved in DMSO (10 mM) as stock solutions. The final drug concentration is 100 nM. […] Fluorescence intensity values for control wells (assay buffer only) were subtracted from each data point prior to analysis. The Kd was calculated using GraphPad Prism with the following equation curve fit. I=I0−If×Kd/P0+Kd+If

MOLM-14 cells = test: Quantitative multiplexed (TMT) proteomics of compound-treated cells; type: cell-based, Homo sapiens; conditions: 200 nM, 24 h
Description: For proteomic study of the cellular protein profile following BTK degradation, MOLM-14 cells were treated in duplicate with 200 nM of RC-1, RNC-1, IRC-1, or RC-1-Me for 24 h, and then the cells were collected and processed for proteomics analysis (Sanford Burnham Prebys Medical Discovery Institute, La Jolla, California).
For cell lysis and protein digestion, cells were lysed with vigorous shaking (20 Hz for 10 min at room temperature by Retsch MM301 instrument) in 0.5 mL of lysis buffer (8 M urea, 50 mM ammonium bicarbonate (ABC); plus Benzonase 24U/100 ml), and extracted proteins were centrifuged at 14,000 × g for 10 min to remove cellular debris. Supernatant protein concentration was determined using a bicinchoninic acid (BCA) protein assay. Following quantification, the proteins were digested in solution. First, protein disulfide bonds were reduced with 5 mM tris(2-carboxyethyl)phosphine (TCEP) at 30 °C for 60 min, alkylated (carbamidomethylated) with 15 mM iodoacetamide (IAA) in the dark at room temperature for 30 min. Urea was then diluted to 1 M urea using 50 mM ammonium bicarbonate, and proteins were subjected to overnight digestion with mass spec grade Trypsin/Lys-C mix. Following digestion, samples were acidified with formic acid (FA) and subsequently desalted using Waters Sep-Pak C18. Cartridges were sequentially conditioned with 100% acetonitrile (ACN) and 0.1% FA, samples were then loaded, washed with 0.1% FA, and peptides eluted with 60% ACN, 0.1% FA. Finally, the organic solvent was removed in a SpeedVac concentrator prior to LC-MS/MS analysis.
Prior to TMT labeling, sample peptide amount was quantified using a NanoDrop^TM spectrophotometer (ThermoFisher). Samples were labeled according to the table schematic shown below using our TMT protocol. Briefly, a normalized amount of peptides sample was resuspended in 200 mM HEPES pH 8, and then labeled with one of the TMT10-plex reagents for 1 h at room temperature. TMT labels/channels were as follows:
Reactions were quenched with 5% hydroxylamine solution. The 10 samples were then combined, dried down in a SpeedVac system, resuspended in 0.1% FA, and desalted as described above. After desalting, the organic solvent was removed in a SpeedVac concentrator.
Dried samples were reconstituted in 20 mM ammonium formate pH ~10, and fractionated by high pH reverse phase using a Waters Acquity CSH C18 2.1-µm 1 × 150 mm column mounted on an M-Class Ultra Performance Liquid Chromatography (UPLC) system (Waters corp., Milford, MA). […] A total of 36 fractions were collected and pooled in a non-contiguous manner into 18 total fractions: 1 + 19, 2 + 20, 3 + 21, 4 + 22, 5 + 23, 6 + 24, 7 + 25, 8 + 26, 9 + 27, 10 + 28, 11 + 29, 12 + 30, 13 + 31, 14 + 32, 15 + 33, 16 + 34, 17 + 35, and 18 + 36. Pooled fractions were dried to completeness in a SpeedVac concentrator.
Dried fractions were reconstituted with 2% ACN-0.1% FA and analyzed by LC-MS/MS using a nanoACQUITY system (Waters) coupled to an Orbitrap Fusion Lumos mass spectrometer (Thermo Fisher Scientific). […] The mass spectrometer was operated in positive data-dependent acquisition mode. MS1 spectra were measured in the Orbitrap with a resolution of 60,000 (AGC target: 4e5; maximum injection time: 50 ms; mass range: from 350 to 1500 m/z). The instrument was set to run in top speed mode with 3 s cycles for the survey and the MS/MS scans. After a survey scan, tandem MS was performed in the Ion Routing Multipole HCD-Cell on the most abundant precursors by isolating them in the quadrupole (Isolation window: 0.7 m/z; charge state: +2–7; collision energy: 35%). […] The dynamic exclusion was set to 20 s with a 10-ppm mass tolerance around the precursor and its isotopes.
For data analysis, all mass spectra were analyzed with MaxQuant software version 1.5.5.1. MS/MS spectra were searched against the Homo sapiens Uniprot protein sequence database (version January 2018) and GPM cRAP sequences (commonly known protein contaminants). […]

Jeko-1 = test: IC50 in MCL cell lines (Supplementary Table 2), Jeko-1; conditions: for IC50: Jeko-1, triplicates; for Cell Viability (%): Jeko-1 cells, replicate wells

T1 sequence (Q96SW2 whole entry, the tested form may be a part): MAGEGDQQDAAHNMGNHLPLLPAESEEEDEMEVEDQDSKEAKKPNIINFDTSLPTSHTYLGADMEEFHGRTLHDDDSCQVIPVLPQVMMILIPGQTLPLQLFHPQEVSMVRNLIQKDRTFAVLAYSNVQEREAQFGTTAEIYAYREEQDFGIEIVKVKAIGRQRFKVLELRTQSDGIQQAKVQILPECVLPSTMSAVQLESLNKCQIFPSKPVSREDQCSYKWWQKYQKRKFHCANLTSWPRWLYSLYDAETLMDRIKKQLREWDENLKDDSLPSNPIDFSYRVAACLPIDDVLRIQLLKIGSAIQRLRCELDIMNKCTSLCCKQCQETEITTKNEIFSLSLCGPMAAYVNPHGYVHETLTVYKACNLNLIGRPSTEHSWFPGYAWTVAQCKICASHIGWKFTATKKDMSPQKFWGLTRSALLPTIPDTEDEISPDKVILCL
T1 sequence (Q16531 whole entry partner, the tested form may be a part): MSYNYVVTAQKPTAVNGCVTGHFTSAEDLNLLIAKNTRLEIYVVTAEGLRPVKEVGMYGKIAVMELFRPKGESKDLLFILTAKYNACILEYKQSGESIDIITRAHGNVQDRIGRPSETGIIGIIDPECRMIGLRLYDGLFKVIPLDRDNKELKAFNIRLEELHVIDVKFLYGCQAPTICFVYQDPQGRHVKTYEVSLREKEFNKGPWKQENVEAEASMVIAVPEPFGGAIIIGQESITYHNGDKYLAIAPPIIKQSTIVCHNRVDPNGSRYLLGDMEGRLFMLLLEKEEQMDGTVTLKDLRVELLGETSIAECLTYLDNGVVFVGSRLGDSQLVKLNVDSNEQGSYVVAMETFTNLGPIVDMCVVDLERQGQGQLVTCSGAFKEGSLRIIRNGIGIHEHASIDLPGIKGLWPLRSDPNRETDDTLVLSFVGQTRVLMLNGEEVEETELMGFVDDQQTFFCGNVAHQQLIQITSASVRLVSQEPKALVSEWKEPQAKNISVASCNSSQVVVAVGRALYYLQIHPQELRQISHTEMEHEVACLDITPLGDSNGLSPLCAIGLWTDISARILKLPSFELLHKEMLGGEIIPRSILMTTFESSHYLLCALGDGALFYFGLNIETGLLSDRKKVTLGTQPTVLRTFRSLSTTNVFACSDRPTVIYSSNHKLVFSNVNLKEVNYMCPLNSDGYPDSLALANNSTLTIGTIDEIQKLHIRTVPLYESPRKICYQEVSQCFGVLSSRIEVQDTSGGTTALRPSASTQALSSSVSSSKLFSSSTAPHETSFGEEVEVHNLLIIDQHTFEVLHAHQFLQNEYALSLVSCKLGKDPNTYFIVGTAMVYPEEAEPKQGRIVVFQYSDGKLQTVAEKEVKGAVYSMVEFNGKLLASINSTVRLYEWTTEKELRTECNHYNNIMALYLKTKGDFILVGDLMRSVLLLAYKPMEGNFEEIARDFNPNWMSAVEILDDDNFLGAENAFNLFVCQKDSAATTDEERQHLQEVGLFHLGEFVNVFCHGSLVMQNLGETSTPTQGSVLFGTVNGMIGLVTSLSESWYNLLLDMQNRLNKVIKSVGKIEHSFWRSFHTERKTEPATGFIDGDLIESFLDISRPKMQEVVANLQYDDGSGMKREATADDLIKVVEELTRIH
Sequence of truncated Cereblon protein (Q96SW2 318-426): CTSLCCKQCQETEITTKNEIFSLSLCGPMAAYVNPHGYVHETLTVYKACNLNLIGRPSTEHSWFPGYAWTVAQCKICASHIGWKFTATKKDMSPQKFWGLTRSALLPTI

CN(CCCNC(=O)CNc1cccc2c1C(=O)N(C1CCC(=O)NC1=O)C2=O)CCCC(=O)N1CCCC(n2nc(-c3ccc(Oc4ccccc4)cc3)c3c(N)ncnc32)C1 (stereo not drawn) [RNC-1]
NanoBRET(%) (NanoLuc-CRBN fusion; 1.60E-08 M): 102.085% and 102.001% | NanoBRET(%) (NanoLuc-CRBN fusion; 2.00E-06 M): 49.8083% and 51.4483% and 59.2693% | NanoBRET(%) (NanoLuc-CRBN fusion; 3.20E-09 M): 100.05% and 108.808% and 104.469% | NanoBRET(%) (NanoLuc-CRBN fusion; 4.00E-07 M): 67.9857% and 66.2855% and 79.0983% | NanoBRET(%) (NanoLuc-CRBN fusion; 8.00E-08 M): 74.8615% and 82.1247% | IC50 (NanoLuc-CRBN fusion): 1690 nM | K′P,D (relative intracellular accumulation coefficient) (NanoLuc-CRBN fusion): 1.1 | intracellular accumulation of RC-1 relative to the compound (NanoLuc-CRBN fusion): 16 fold | CRBN target engagement IC50 relative to that of RC-1 (NanoLuc-CRBN fusion): 7 fold | Fluorescence Intensity ([1]; CRBN 0 μM): 2486.8 and 2886.8 and 2579.8 | Fluorescence Intensity ([1]; CRBN 0.734375 μM): 2242.8 and 2235.8 and 2132.8 | Fluorescence Intensity ([1]; CRBN 1.46875 μM): 2244.8 and 1962.8 and 1899.8 | Fluorescence Intensity ([1]; CRBN 2.9375 μM): 1778.8 and 1742.8 and 1730.8 | Fluorescence Intensity ([1]; CRBN 5.875 μM): 1389.8 and 1303.8 and 1288.8 | Fluorescence Intensity ([1]; CRBN 11.75 μM): 1034.8 and 1140.8 and 1274.8 | Fluorescence Intensity ([1]; CRBN 23.5 μM): 1293.8 and 1294.8 and 1588.8 | Kd [1]: 1800 nM | degradation of IMiD-dependent substrates IKZF1, ZFP91, ZNF692 (MOLM-14 cells): specifically degraded | kinases degraded (proteomics) (MOLM-14 cells): 7

CC(C)(C)C=C(C#N)C(=O)N1CCCC(n2nc(-c3ccc(Oc4ccccc4)cc3)c3c(N)ncnc32)C1 (stereo not drawn) [RC-Ctrl]
IC50 (Jeko-1): 600 nM | Cell Viability (%) (Jeko-1; 1.25E-06 M): 31.3102% and 33.1774% and 45.3843% | Cell Viability (%) (Jeko-1; 1.56E-07 M): 69.2456% and 61.0172% and 73.2882% | Cell Viability (%) (Jeko-1; 2.50E-06 M): 11.5927% and 9.314% and 11.5138% | Cell Viability (%) (Jeko-1; 3.13E-07 M): 58.8318% and 42.4713% and 68.6832% | Cell Viability (%) (Jeko-1; 5.00E-06 M): 5.458% and 5.865% and 4.45% | Cell Viability (%) (Jeko-1; 6.25E-07 M): 52.1031% and 47.1602% and 45.3596% | Cell Viability (%) (Jeko-1; 7.81E-08 M): 53.9062% and 67.1539% and 84.5751%

CN1C(=O)CCC(N2C(=O)c3cccc(NCC(=O)NCCCN(C)C(C)(C)C=C(C#N)C(=O)N4CCCC(n5nc(-c6ccc(Oc7ccccc7)cc6)c6c(N)ncnc65)C4)c3C2=O)C1=O (stereo not drawn) [RC-1-Me]
IC50 (Jeko-1): 600 nM | Cell Viability (%) (Jeko-1; 1.25E-06 M): 36.268% and 32.7063% and 31.5519% | Cell Viability (%) (Jeko-1; 1.56E-07 M): 68.2022% and 62.2702% and 73.2784% | Cell Viability (%) (Jeko-1; 2.50E-06 M): 5.54% and 14.7844% and 6.721% | Cell Viability (%) (Jeko-1; 3.13E-07 M): 71.0782% and 71.3298% and 71.3347% | Cell Viability (%) (Jeko-1; 5.00E-06 M): 4.5335% and 3.7442% and 3.927% | Cell Viability (%) (Jeko-1; 6.25E-07 M): 49.1754% and 57.0313% and 33.3624% | Cell Viability (%) (Jeko-1; 7.81E-08 M): 77.062% and 93.1685% and 69.7463% | kinases degraded (proteomics) (MOLM-14 cells): no degradation is observed

CN(CC=CC(=O)N1CCCC(n2nc(-c3ccc(Oc4ccccc4)cc3)c3c(N)ncnc32)C1)CCCNC(=O)CNc1cccc2c1C(=O)N(C1CCC(=O)NC1=O)C2=O (stereo not drawn) [IRC-1]
NanoBRET(%) (NanoLuc-CRBN fusion; 1.00E-05 M): 14.8662% and 22.7538% and 22.1529% | NanoBRET(%) (NanoLuc-CRBN fusion; 1.60E-08 M): 80.9317% and 101.051% and 94.8942% | NanoBRET(%) (NanoLuc-CRBN fusion; 2.00E-06 M): 31.3092% and 33.6262% and 37.1463% | NanoBRET(%) (NanoLuc-CRBN fusion; 3.20E-09 M): 91.4483% and 90.0848% | NanoBRET(%) (NanoLuc-CRBN fusion; 4.00E-07 M): 56.7638% and 59.2904% | NanoBRET(%) (NanoLuc-CRBN fusion; 8.00E-08 M): 86.864% and 89.7074% and 93.5853% | IC50 (NanoLuc-CRBN fusion): 860 nM | K′P,D (relative intracellular accumulation coefficient) (NanoLuc-CRBN fusion): 1.7 | CRBN engagement (NanoLuc-CRBN fusion; at 400 nM): ~ 40% | intracellular accumulation of RC-1 relative to the compound (NanoLuc-CRBN fusion): 10 fold | CRBN target engagement IC50 relative to that of RC-1 (NanoLuc-CRBN fusion): 3 fold | Fluorescence Intensity ([1]; CRBN 0 μM): 2824.6 and 2800.6 and 2664.6 | Fluorescence Intensity ([1]; CRBN 0.734375 μM): 1780.6 and 1887.6 and 2192.6 | Fluorescence Intensity ([1]; CRBN 1.46875 μM): 1780.6 and 1687.6 and 2021.6 | Fluorescence Intensity ([1]; CRBN 2.9375 μM): 1637.6 and 1410.6 and 1592.6 | Fluorescence Intensity ([1]; CRBN 5.875 μM): 1188.6 and 1223.6 and 1189.6 | Fluorescence Intensity ([1]; CRBN 11.75 μM): 912.6 and 875.6 and 944.6 | Fluorescence Intensity ([1]; CRBN 23.5 μM): 936.6 and 917.6 and 925.6 | Kd [1]: 1500 nM | degradation of IMiD-dependent substrates IKZF1, ZFP91, ZNF692 (MOLM-14 cells): specifically degraded | kinases degraded (proteomics) (MOLM-14 cells): 7
